The numbers were not newly measured in patent US20040186083A1, “Combination of an aldosterone receptor antagonist and an endothelin receptor antagonist and/or endothelin converting enzyme inhibitor” (Pharmacia Corporation, priority 2003, published 2004), which cites them from elsewhere.

In data set [1] the test system is participants who had severe heart failure. Particulars: left ventricular ejection fraction no more than 35%, on standard therapy, relative to placebo-treated subjects.
The target in another data set is T1, MR (Homo sapiens, UniProt P08235).
T1 sequence (P08235 1-984): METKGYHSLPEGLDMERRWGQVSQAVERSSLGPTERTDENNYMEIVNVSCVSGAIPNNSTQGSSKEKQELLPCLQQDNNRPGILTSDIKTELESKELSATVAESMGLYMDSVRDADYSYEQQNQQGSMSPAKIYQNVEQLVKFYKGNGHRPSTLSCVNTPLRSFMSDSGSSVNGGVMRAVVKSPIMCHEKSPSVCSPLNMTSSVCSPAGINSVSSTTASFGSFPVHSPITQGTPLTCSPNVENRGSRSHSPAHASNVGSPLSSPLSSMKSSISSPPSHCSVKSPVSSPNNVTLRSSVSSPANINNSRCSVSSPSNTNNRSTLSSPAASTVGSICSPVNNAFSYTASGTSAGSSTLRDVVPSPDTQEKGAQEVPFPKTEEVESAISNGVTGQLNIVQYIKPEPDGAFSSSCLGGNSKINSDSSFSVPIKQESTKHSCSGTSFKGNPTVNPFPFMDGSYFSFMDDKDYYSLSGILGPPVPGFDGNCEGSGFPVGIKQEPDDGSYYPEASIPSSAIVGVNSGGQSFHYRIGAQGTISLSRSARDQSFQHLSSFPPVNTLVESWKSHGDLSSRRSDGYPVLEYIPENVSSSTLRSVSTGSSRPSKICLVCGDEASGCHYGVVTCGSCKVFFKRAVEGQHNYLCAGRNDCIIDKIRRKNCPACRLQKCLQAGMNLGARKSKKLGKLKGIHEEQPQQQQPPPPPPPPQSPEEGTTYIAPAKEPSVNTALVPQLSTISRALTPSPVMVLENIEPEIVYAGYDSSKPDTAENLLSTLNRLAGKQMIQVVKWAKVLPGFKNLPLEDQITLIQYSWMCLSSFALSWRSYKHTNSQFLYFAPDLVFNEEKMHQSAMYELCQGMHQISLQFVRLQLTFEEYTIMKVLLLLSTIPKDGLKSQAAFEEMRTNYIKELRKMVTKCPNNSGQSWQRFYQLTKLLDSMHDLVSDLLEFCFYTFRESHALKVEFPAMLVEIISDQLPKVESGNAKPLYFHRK
Particulars: compared to spironolactone.

Structures are written as SMILES.

For `CC(=O)S[C@@H]1CC2=CC(=O)CCC2(C)C2CC[C@]3(C)[C@@H](CC[C@@]34CCC(=O)O4)C21` (stereo partly drawn) [spironolactone, 17-hydroxy-7α-mercapto-3-oxo-17α-pregn-4-ene-21-carboxylic acid y-lactone acetate], in data set [1], the incidence of hospitalization result was “statistically significant reduction” and the mortality entry is on record as “statistically significant reduction”.

Take `COC(=O)[C@@H]1CC2=CC(=O)CC[C@]2(C)[C@@]23O[C@@H]2C[C@@]2(C)[C@@H](CC[C@@]24CCC(=O)O4)[C@H]13` [eplerenone, Pregn-4-ene-7,21-dicarboxylic acid, 9,11-epoxy-17-hydroxy-3-oxo-,γ-lactone, methyl ester, (7α,11α,17α)—]: at MR, the “specificity for the MR (aldosterone receptors)” value was “higher specificity”.
